According to publication PMC8070745, “FEN1 Blockade for Platinum Chemo-Sensitization and Synthetic Lethality in Epithelial Ovarian Cancers” (Cancers, 2021):

Legend:
[1] = system: BRCA2_KD HeLa silenciX cells; experiment: Clonogenic assay, BRCA2_KD HeLa; format: cell-based; details: vs control HeLa cells
Description: Clonogenic assay: In the clonogenic assay (colony formation assays), 32 cells/cm2 were seeded in 6-well plates and left at 37°C in a 5% CO2 atmosphere. Cisplatin (5µM) and/or FEN1i (10µM) and/or Importazole (5 µM, Selleckem, S8446 ) were added at the indicated concentrations and the plates were left at 37 °C in a 5% CO 2 atmosphere for 14 days. Later, the plates were washed with PBS, fixed and stained with a crystal violet, acetic acid and methanol solution and colonies were counted.
Nuclear and cytoplasmic extract: Cells were harvest by trypsinization, washed with PBS and centrifuged at 1000×g for 5min. […] Protein level were then quantified prior to use in western blots.
BCA protein quantification: Protein quantification was done using the Pierce BCA kit assay by Thermo Fisher Scientific. […] The plate was incubated at 37°C during 30 min in the dark and the absorbance was measured by FLUOstar OPTIMA, UK/ Infinite® F50 (UK) microplate reader at 590 nm. […]
Western Blot Analysis: Cells were harvested and lysed in RIPA buffer (R0278, Sigma) with the addition of protease cocktail inhibitor (P8348, Sigma), phosphatase inhibitor cocktail 2 (P5726, Sigma) and phosphatase inhibitor cocktail 3 (P0044, Sigma) and stored at - 20°C. Protein was quantified using BCA Protein Assay kit (23225, Thermo Fisher). […]

A2780cis spheroids = experiment: 3D spheroid assay, A2780cis; format: cell-based, human; details: FEN1i/cisplatin combination vs cisplatin or FEN1i monotherapy
Description: (§1) with ice cold PBS and fixed in 70% ethanol for 1h at -20°C. After removal of the fixative solution by centrifugation, cells were stained with 2 µg/ml of phospho-Histone (γH2AX) Ser139 (16202A, Millipore, UK) to detect DSBs.
(§2) Cell cycle progression: Cells were treated with 20 µg/ml RNase A (12091021, Invitrogen) and then 10 µg/ml Propidium Iodide (P4170, Sigma Aldrich) was added to determine the cell cycle distribution. The samples were analysed on a Beckman-Coulter FC500 flow cytometer using a 488nm laser for excitation and emission data for PI collected using a 620nm bandpass filter (FL3) and a 525nm bandpass filter (FL1) for FITC-anti-phospho-Histone H2A.X.
(§3) Apoptosis detection: Annexin V detection kit (556547, BD Biosciences) was used to quantify apoptotic cells. Briefly, cells were trypsinized, washed with PBS and the cellular pellet was re-suspended in Anexin Binding Buffer (1×). […] All the samples were analysed on a Beckman-Coulter FC500 flow cytometer. The percentage of apoptotic cells was determined (late apoptotic = FITC-Annexin V positive, PI positive early apoptotic = FITC-Annexin V positive, PI negative; live cells = FITC-Annexin V negative, PI negative) and compared for untreated and treated samples. […]
(§4) To quantify cell viability, LIVE/DEAD Viability/Cytotoxicity Kit (L3224, Thermo Fisher Scientific) was used. […] At least 10 spheroids were measured. […]

PEO4 spheroids = experiment: 3D spheroid assay, PEO4; format: cell-based, human; details: FEN1i/cisplatin combination vs cisplatin or FEN1i monotherapy
Description: as §1, §2, §3, §4

POLβ KO A2780cis cells = experiment: Annexin V apoptosis detection, POLβ KO A2780cis; format: cell-based, human; details: FEN1i-treated
Description: Apoptosis detection: Annexin V detection kit (556547, BD Biosciences) was used to quantify apoptotic cells. Briefly, cells were trypsinized, washed with PBS and the cellular pellet was re-suspended in Anexin Binding Buffer (1×). Following, FITC Anexin V and Propidium Iodide were added to the cells. After incubation, Anexin binding Buffer (1×) was added to each tube. All the samples were analysed on a Beckman-Coulter FC500 flow cytometer. The percentage of apoptotic cells was determined (late apoptotic = FITC-Annexin V positive, PI positive early apoptotic = FITC-Annexin V positive, PI negative; live cells = FITC-Annexin V negative, PI negative) and compared for untreated and treated samples. Graphical representation and statistical analysis was performed in GraphPad Prism 7 (GraphPad, La Jolla, USA).
3D Spheroid assays: A2780_control and A2780 FEN1_ KO as well as A2780cis_control and A2780cis FEN1_ KO cells were seeded at 4500 cells/cm2 density in ultra-low attachment 6-well plates (174932, Thermo Fisher Scientific) and cultured in 3D Tumorsphere Medium (C28070, PromoCell, UK) at 37°C in a 5% CO2 atmosphere. Cells were keep in culture for 7-10 days, toping up with fresh medium every two days until spheroids structures were formed.

## Cc1csc2c1c(=O)n(O)c(=O)n2-c1ccccc1 [PTPD, 3-hydroxy-5-methyl-1-phenylthieno [2,3 d]pyrimidine-2,4(1H,3H)-dione]
[1]
  sensitivity to FEN1 inhibitor: sensitive to FEN1i compared to control HeLa cells
A2780cis spheroids
  cell death in 3D-spheroids: increased cell death
PEO4 spheroids
  cell death in 3D spheroids: increased cell death
POLβ KO A2780cis cells
  apoptosis: apoptosis
